Measured values taken from ChEMBL document CHEMBL5465560, “Selectivity Literature for EUbOPEN Chemogenomic Library” (2024).
One block for each molecule: values may come before it.

How the values were obtained:
[1] = target: Mitogen-activated protein kinase 10 (Homo sapiens, UniProt P53779); assay: Selectivity interaction (KinomeScan (DiscoverX)) EUB0000655a MAPK10; details: at 10 µM
[2] = target: T1, Serine/threonine-protein kinase DCLK2 (Homo sapiens) (UniProt Q8N568); assay: Selectivity interaction (KinomeScan (DiscoverX)) EUB0000618a DCLK2; details: at 10 µM
T1 sequence (whole entry): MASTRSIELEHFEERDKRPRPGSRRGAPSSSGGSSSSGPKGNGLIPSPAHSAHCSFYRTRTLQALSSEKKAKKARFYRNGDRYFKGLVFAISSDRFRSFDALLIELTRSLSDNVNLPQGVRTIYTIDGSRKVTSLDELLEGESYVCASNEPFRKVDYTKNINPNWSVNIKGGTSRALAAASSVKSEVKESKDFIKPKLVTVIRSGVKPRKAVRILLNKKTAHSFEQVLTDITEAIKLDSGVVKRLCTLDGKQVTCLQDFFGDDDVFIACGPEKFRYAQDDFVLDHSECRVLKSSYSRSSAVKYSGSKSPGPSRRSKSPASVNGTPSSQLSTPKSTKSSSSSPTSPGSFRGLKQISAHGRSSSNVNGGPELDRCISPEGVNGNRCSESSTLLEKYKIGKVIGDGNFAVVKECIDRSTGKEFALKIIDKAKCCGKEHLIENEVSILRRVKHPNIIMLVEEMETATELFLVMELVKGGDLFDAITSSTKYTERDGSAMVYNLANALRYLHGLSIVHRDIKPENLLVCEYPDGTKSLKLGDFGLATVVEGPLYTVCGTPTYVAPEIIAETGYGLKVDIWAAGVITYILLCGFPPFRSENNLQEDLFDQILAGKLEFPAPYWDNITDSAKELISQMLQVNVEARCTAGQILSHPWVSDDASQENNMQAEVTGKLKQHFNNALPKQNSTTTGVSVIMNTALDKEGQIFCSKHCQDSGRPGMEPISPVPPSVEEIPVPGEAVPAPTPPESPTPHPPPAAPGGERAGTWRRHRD

[3] = target: T2, Serine/threonine-protein kinase TAO2 (Homo sapiens) (UniProt Q9UL54); assay: Selectivity interaction (SelectScreen profiling (Invitrogen)) EUB0000607a TAOK2; details: at 2 µM
T2 sequence (whole entry): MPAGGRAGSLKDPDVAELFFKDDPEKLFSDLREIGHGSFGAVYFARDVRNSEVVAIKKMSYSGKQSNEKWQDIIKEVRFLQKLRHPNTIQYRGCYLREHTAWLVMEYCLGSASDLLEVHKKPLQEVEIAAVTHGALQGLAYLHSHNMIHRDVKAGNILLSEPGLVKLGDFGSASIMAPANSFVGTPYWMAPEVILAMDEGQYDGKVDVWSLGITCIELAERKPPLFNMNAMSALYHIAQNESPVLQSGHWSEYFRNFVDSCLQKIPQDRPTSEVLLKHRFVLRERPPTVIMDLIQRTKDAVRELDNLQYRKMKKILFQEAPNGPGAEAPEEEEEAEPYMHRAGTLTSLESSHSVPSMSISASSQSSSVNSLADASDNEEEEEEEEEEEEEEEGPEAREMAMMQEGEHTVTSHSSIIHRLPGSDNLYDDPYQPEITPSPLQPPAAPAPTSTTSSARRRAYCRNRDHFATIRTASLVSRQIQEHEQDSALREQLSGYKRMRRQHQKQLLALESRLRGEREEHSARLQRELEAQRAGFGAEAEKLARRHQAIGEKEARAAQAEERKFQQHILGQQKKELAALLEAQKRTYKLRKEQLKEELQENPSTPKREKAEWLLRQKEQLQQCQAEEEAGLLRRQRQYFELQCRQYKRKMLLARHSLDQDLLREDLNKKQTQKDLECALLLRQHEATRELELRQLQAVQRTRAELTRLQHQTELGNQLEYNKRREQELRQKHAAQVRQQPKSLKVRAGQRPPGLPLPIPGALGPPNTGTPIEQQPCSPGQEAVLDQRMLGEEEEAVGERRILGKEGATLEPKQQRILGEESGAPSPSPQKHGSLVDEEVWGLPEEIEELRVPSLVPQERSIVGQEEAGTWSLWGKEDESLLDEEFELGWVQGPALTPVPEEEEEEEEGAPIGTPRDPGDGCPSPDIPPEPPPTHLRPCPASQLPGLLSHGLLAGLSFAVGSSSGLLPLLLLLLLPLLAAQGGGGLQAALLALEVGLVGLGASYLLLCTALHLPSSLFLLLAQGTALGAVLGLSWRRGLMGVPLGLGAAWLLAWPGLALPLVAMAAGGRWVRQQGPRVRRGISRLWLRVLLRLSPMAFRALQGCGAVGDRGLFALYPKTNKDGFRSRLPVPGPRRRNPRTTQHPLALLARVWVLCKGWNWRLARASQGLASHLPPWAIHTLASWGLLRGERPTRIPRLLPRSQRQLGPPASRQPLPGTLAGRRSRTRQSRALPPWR

[4] = target: T3, Protein kinase C iota type (Homo sapiens) (UniProt P41743); assay: Selectivity interaction (KinomeScan (DiscoverX)) EUB0000595a PRKCI; details: at 10 µM
T3 sequence (whole entry): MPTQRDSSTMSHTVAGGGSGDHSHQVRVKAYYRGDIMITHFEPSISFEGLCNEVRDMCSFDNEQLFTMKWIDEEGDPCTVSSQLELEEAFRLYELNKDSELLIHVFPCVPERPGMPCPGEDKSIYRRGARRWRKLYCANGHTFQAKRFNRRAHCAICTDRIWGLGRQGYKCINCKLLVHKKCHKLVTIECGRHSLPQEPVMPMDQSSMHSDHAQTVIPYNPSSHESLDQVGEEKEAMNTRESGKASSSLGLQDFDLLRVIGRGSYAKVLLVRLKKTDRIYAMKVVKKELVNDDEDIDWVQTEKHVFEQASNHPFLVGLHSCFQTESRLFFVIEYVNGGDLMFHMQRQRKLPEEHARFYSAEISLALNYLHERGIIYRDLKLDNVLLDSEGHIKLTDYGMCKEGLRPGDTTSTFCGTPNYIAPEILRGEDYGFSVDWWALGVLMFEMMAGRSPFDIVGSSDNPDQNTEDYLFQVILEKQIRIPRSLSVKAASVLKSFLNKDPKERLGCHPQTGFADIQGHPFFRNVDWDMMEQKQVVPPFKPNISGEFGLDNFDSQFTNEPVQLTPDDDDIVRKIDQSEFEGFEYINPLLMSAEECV

[5] = target: Dual specificity mitogen-activated protein kinase kinase 1 (Homo sapiens, UniProt Q02750); assay: Selectivity interaction (KinomeScan (DiscoverX)) EUB0001550a MAP2K1; details: at 1 µM
[6] = target: Calcium/calmodulin-dependent protein kinase type II subunit gamma (Homo sapiens) (UniProt Q13555); assay: Selectivity interaction (LanthaScreen Eu Kinase Binding Assay) EUB0001632a CAMK2G; details: at 10 µM
Sequence of Calcium/calmodulin-dependent protein kinase type II subunit gamma (Homo sapiens) (Q13555 whole entry): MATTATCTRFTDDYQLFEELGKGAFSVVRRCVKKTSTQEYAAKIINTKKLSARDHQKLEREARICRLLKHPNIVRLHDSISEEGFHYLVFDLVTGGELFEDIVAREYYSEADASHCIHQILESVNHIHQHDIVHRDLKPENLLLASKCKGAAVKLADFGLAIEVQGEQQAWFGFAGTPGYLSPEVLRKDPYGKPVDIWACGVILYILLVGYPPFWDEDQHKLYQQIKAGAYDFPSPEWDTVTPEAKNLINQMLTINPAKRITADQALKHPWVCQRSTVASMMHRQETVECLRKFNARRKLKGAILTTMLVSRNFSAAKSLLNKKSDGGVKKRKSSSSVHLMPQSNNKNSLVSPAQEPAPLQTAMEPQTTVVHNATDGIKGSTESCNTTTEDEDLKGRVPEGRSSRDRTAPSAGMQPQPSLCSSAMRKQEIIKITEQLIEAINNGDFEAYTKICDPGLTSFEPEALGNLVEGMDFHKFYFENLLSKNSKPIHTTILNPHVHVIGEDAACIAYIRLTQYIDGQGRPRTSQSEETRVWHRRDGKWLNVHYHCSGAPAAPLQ

Sequence of Dual specificity mitogen-activated protein kinase kinase 1 (Q02750 whole entry): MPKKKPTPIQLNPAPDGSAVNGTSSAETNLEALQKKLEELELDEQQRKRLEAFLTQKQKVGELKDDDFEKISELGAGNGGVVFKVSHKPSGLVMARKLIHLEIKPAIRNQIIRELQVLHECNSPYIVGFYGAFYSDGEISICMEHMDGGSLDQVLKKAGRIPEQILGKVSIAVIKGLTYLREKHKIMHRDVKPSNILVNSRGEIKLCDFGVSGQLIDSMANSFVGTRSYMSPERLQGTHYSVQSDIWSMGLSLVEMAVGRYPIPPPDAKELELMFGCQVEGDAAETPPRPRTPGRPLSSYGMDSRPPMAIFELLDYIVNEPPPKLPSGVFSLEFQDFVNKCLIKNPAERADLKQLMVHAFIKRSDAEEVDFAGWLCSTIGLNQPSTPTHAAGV
Sequence of Mitogen-activated protein kinase 10 (P53779 whole entry): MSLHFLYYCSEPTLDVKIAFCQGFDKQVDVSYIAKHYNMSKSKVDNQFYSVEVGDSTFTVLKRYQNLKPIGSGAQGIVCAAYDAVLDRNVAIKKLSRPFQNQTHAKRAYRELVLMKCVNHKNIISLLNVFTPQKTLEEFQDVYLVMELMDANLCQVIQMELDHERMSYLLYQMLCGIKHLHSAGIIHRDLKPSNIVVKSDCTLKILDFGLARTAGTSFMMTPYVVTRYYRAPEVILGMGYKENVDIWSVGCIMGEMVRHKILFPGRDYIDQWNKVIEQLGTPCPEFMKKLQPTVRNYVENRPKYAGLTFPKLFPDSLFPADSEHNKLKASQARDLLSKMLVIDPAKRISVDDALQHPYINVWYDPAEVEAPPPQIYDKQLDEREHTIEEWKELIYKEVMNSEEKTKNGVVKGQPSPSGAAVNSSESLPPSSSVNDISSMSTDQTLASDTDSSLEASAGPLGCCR

Compound: CN(C)CCOc1ccc(-c2nc(-c3ccncc3)c(-c3ccc4c(c3)CC/C4=N\O)[nH]2)cc1
% of control [1]: 8.6%

Compound: O[C@H]1CC[C@H](Nc2ncc3nc(Nc4c(F)cc(F)cc4F)n([C@H]4CCOC4)c3n2)CC1
% of control [2]: 100%

Compound: CNC(=O)Nc1ccc(-c2nc(N3CC4CCC(C3)O4)c3cnn(C4CCC5(CC4)OCCO5)c3n2)cc1
% of inhibition [3]: 3%

Compound: COCC(=O)NC/C=C/c1ccc2ncnc(Nc3ccc(Oc4ccc(C)nc4)c(C)c3)c2c1 [CP-724714]
% of control [4]: 93%

% of control [5]: 4.5%
Compound: CN(C)CC#Cc1ccc2[nH]c3c(c2c1)-c1nc(N)ncc1CCC3

% of inhibition [6]: -8.35%
Compound: Cn1cc(-n2cnc3c(NCc4nc5cc(Cl)c(Cl)cc5[nH]4)nc(N4CCOCC4)nc32)cn1
